The record followed here is patent publication US7094809B2, “Method of treating subject infected with Neisseria gonorrhea” (Northeastern Ohio Universities College of Medicine, priority 2000, dated 2006).

In data set [1] the test system is HSV-1. Put plainly: HSV-1 plaque assay, infected Vero cells, moi 1 (Example 3). The data set is classed as cell-based. Conditions: 50 μM, data not shown. As to the method:
Cultures of African green monkey kidney cells (Vero) cells, obtained from the American Type Culture Collection, Rockville, Md. were grown to confluence in Medium 199 supplemented with 5% fetal bovine serum, 0.075% NaHCO3, and 50 μg/ml gentamycin sulfate in 25 cm^2 tissue culture flasks. Cells were infected with HSV-1 at a multiplicity of infection (moi) of one and incubated at room temperature for one hour to allow for virus attachment to and penetration of the cell. Under these conditions, approximately half of the cells are infected with virus. Thereafter, the cultures were rinsed three time with media and incubated in medium containing 50 μM or 75 μM 4, 4′-dihydroxytolan prepared in 0.2% dimethyl-sulfoxide (DMSO). Controls were treated identically, but were incubated without the dihyroxylated tolan. For purposes of comparison, HSV cell were also inoculated in the presence of 52.5 μM 4,4′-dihydroxystilbene. Due to the higher cell toxicity of the stilbene, cells were not incubated in the presence of 75 μM dihydroxystilbene.
Upon addition of the medium to the cultures and at 24 hours time periods thereafter, i.e., 0 hours, 24 hours, 48 hours, and 72 hours after addition of the drug, cells and medium were frozen at −70° C. Samples were then thawed, sonicated and titrated on Vero cells to determine the number of plaque forming units (pfu's) of virus produced by each culture.

A further data set has as its system Vero cells. Put plainly: MTT colorimetric cell toxicity assay. Type of data set: cell-based, African green monkey. As to the method: Cell toxicity of the tolans 4,4′-dihydroxytolan (“Tolan-5”), 3,4′,5-trihydroxytolan (“Tolan-10”) and 4-hydroxy-4′-trifluoromethyltolan (“Tolan-11”) was determined using an MTT assay. In this assay, cells are exposed to MTT, 3-(4,5-dimethylthiazol-2-yl)-2,5-diphenyltetrazolium bromide, which is taken into the cells and reduced by mitochondrial dehydrogenase to a purple formazan, a large molecule which is unable to pass through intact cell membranes, and therefore accumulates in healthy cells. The ability of cells to reduce MTT is an indication of mitochondrial integrity and activity, which may be interpreted as a measure of viability. Solubilization of the cells results in the liberation of the product which can readily be detected spectrophotometrically.
Various concentrations of Tolan-5, Tolan-10 and Tolan-11 were added to 96 well tissue culture plates that had been seeded with Vero cells. The plates were then incubated at 37° C. in 5% CO2/95% air for 24, 48 and 72 hours. At the end of each time point, 50 μl of MTT (1 mg/ml) was added to the tissue culture plates which were then incubated for an additional four hours. At the end of that time, dimethyl sulfoxide (DMSO) was added to dissolve the cells and formazan, and the plates were read spectrophotometrically at 540 nm. […] Presented in Table I below are the toxicity results for Tolan-5, Tolan-10, and Tolan-11 measured at 24, 48 and 72 hours of treatment.

For data set [2], the system named is HSV-1. Put plainly: Inhibition of HSV-1 replication in vitro, plaque assay (Example 9). The data set is classed as cell-based. As for the experimental part: Tissue culture cells were infected with HSV-1 and incubated in solutions containing Tolan-5, Tolan-10 and Tolan-11. The concentrations used ranged from one-half to three-quarters of the calculated CD50 for the respective tolan at 48 hours of treatment. Specifically, Vero cells were infected with HSV-1 at a multiplicity of infection of one for one hour. At the end of that time, the cultures were rinsed with media and fresh media containing various concentration of the respective tolan were added. Infected control cultures were incubated in media lacking hydroxylated tolan. At 1, 24, 48, and 72 hours after infection, samples were frozen at −70° C. until assayed for new virus production. Virus production was quantified by the plaque assay for each time point of infection. The results, which are expressed as plaque forming units per milliliter (pfu/ml).

Regarding `Oc1ccc(C=Cc2ccc(O)cc2)cc1` [4,4′-dihydroxystilbene, reference compound], in the data set on HSV-1 [1], the “effect on virus production” value is recorded as “no effect”.

As for `Oc1ccc(C#Cc2ccc(C(F)(F)F)cc2)cc1` [Tolan-11, 4-hydroxy-4′-trifluoromethyltolan], the “toxicity (in words)” value with Vero cells was “more toxic than the other hydroxylated tolans”. Moreover, the CD50 came out at 72.1 µM in the data set with Vero cells (24 hours), 48.2 µM with Vero cells (48 hours) and 47.1 µM with Vero cells (72 hours). Further, in the data set with HSV-1 [2] (Vero cells, moi 1, up to 72 hours), the HSV-1 production result is on record as “inhibited HSV-1 production”. Moreover, in the data set with HSV-1 [2] (concentration of less than 48 μm), the “effect on HSV-1 production” value was “little to no effect”.
